Data reported in patent publication US8247377B2, “Non-steroidal glucocorticoid inhibitors and their use in treating inflammation, allergy and auto-immune conditions” (Glaxo Group Limited, priority 2006, dated 2012).

System: NFκB
Assay: NFκB agonist assay in A549 SPAP cells;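 as to average maximum asymptote in the NFkB assay: maximum inhibition of the TNFα-induced NFκB-driven signal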
Assay type: cell-based
Conditions: Homo sapiens; for Emax: A549, A549 SPAP cells, >85% = full agonist, ≧20% = partial or full agonist, read-out: average maximum asymptote in the NFkB assay; for IC50: A549 SPAP cells, TNFα 3.2 ng/ml, read-out: pIC50 for the NFkB assay (converted)
Method in brief: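 A549 cells stably carrying an ELAM/NFκB-driven SPAP reporter were pre-incubated 1 h at 37° C with compound, then stimulated with TNFα (3.2 ng/ml final) for 15 h. SPAP activity read colorimetrically with pNPP at 405 nm after ~1 h; pIC50 estimated from dose-response curves.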

| Compound | Emax | IC50 |
| --- | --- | --- |
| Nc1c(C(=O)NCC(O)(CN(CCF)C(=O)c2c(Cl)cccc2Cl)C(F)(F)F)cnn1-c1ccc(F)cc1 (racemic) [Example 28 (racemic), 5-amino-N-(2-{[[(2,6-dichlorophenyl)carbonyl](2-fluoroethyl)amino]methyl}-3,3,3-trifluoro-2-hydroxypropyl)-1-(4-fluorophenyl)-1H-pyrazole-4-carboxamide] | > 85% | < 1000 nM |
| CCN(CC(O)(CNC(=O)c1cnn(-c2ccc(F)cc2)c1N)C(F)(F)F)C(=O)c1ccccc1S(C)(=O)=O (racemic) [Example 10 (racemic), 5-Amino-N-{2-[(ethyl{[2-(methylsulfonyl)phenyl]carbonyl}amino)methyl]-3,3,3-trifluoro-2-hydroxypropyl}-1-(4-fluorophenyl)-1H-pyrazole-4-carboxamide] | > 85% | < 1000 nM |
| Nc1c(C(=O)NCC(O)(CNC(=O)c2c(C(F)(F)F)cccc2C(F)(F)F)C(F)(F)F)cnn1-c1ccc(F)cc1 (racemic) [Example 15 (racemic), 5-amino-N-{2-[({[2,6-bis(trifluoromethyl)phenyl]carbonyl}amino)methyl]-3,3,3-trifluoro-2-hydroxypropyl}-1-(4-fluorophenyl)-1H-pyrazole-4-carboxamide] | ≥ 20% | < 1000 nM |
| Nc1c(C(=O)NCC(O)(CNC(=O)c2c(C(F)F)cccc2C(F)F)C(F)(F)F)cnn1-c1ccc(F)cc1 (single isomer, unassigned) [Example 43 Enantiomer 1, 5-Amino-N-{2-[({[2,6-bis(difluoromethyl)phenyl]carbonyl}amino)methyl]-3,3,3-trifluoro-2-hydroxypropyl}-1-(4-fluorophenyl)-1H-pyrazole-4-carboxamide] | ≥ 20% | < 1000 nM |
| CCN(CC(O)(CNC(=O)c1cnn(-c2cccc(F)c2)c1N)C(F)(F)F)C(=O)c1c(F)cccc1F (racemic) [Example 38 (racemic), 5-amino-N-(2-{[[(2,6-difluorophenyl)carbonyl](ethyl)amino]methyl}-3,3,3-trifluoro-2-hydroxypropyl)-1-(3-fluorophenyl)-1H-pyrazole-4-carboxamide] | > 85% | < 1000 nM |
| CCN(CC(O)(CNC(=O)c1cnn(-c2ccc(F)cc2)c1N)C(F)(F)F)C(=O)c1c(Cl)cccc1Cl (racemic) [Example 2 (racemic), 5-Amino-N-(2-{[[(2,6-dichlorophenyl)carbonyl](ethyl)amino]methyl}-3,3,3-trifluoro-2-hydroxypropyl)-1-(4-fluorophenyl)-1H-pyrazole-4-carboxamide] | > 85% | < 1000 nM |
| Nc1c(C(=O)NCC(O)(CNC(=O)c2c(Cl)cccc2Cl)C(F)(F)F)cnn1-c1ccc(F)cc1 (single isomer, unassigned) [Example 3 Enantiomer 1, 5-Amino-N-[2-({[(2,6-dichlorophenyl)carbonyl]amino}methyl)-3,3,3-trifluoro-2-hydroxypropyl]-1-(4-fluorophenyl)-1H-pyrazole-4-carboxamide] | ≥ 20% | < 1000 nM |
| CN(CC(O)(CNC(=O)c1cnn(-c2ccc(F)cc2)c1N)C(F)(F)F)C(=O)c1c(C(F)(F)F)cccc1C(F)(F)F (racemic) [Example 22 (racemic), 5-amino-N-(2-{[{[2,6-bis(trifluoromethyl)phenyl]carbonyl}(methyl)amino]methyl}-3,3,3-trifluoro-2-hydroxypropyl)-1-(4-fluorophenyl)-1H-pyrazole-4-carboxamide] | > 85% | < 1000 nM |
| CN(CC(O)(CNC(=O)c1cnn(-c2ccc(F)cc2)c1N)C(F)(F)F)C(=O)c1c(Cl)cccc1Cl (racemic) [Example 1 (racemic), 5-Amino-N-(2-{[[(2,6-dichlorophenyl)carbonyl](methyl)amino]methyl}-3,3,3-trifluoro-2-hydroxypropyl)-1-(4-fluorophenyl)-1H-pyrazole-4-carboxamide] | > 85% | < 1000 nM |
| Nc1c(C(=O)NCC(O)(CNC(=O)c2c(F)cccc2Br)C(F)(F)F)cnn1-c1ccc(F)cc1 (single isomer, unassigned) [Example 13 Enantiomer 1, 5-Amino-N-[2-({[(2-bromo-6-fluorophenyl)carbonyl]amino}methyl)-3,3,3-trifluoro-2-hydroxypropyl]-1-(4-fluorophenyl)-1H-pyrazole-4-carboxamide] | ≥ 20% | < 1000 nM |
| CCN(CC(O)(CNC(=O)c1cnn(-c2ccc(F)cc2)c1N)C(F)(F)F)C(=O)c1ccccc1S(C)(=O)=O (single isomer, unassigned) [Example 10 Enantiomer 1, 5-Amino-N-{2-[(ethyl{[2-(methylsulfonyl)phenyl]carbonyl}amino)methyl]-3,3,3-trifluoro-2-hydroxypropyl}-1-(4-fluorophenyl)-1H-pyrazole-4-carboxamide] | > 85% | < 1000 nM |
| Nc1c(C(=O)NCC(O)(CNC(=O)c2c(F)cccc2OC(F)F)C(F)(F)F)cnn1-c1ccc(F)cc1 (single isomer, unassigned) [Example 48 Enantiomer 1, 5-Amino-N-(2-{[({2-[(difluoromethyl)oxy]-6-fluorophenyl}carbonyl)amino]methyl}-3,3,3-trifluoro-2-hydroxypropyl)-1-(4-fluorophenyl)-1H-pyrazole-4-carboxamide] | ≥ 20% | < 1000 nM |
| Nc1c(C(=O)NCC(O)(CNC(=O)c2c(Cl)cccc2OC(F)F)C(F)(F)F)cnn1-c1ccc(F)cc1 (racemic) [Example 14 (racemic), 5-Amino-N-(2-{[({2-chloro-6-[(difluoromethyl)oxy]phenyl}carbonyl)amino]methyl}-3,3,3-trifluoro-2-hydroxypropyl)-1-(4-fluorophenyl)-1H-pyrazole-4-carboxamide] | ≥ 20% | < 1000 nM |
| CCN(CC(O)(CNC(=O)c1cnn(-c2ccc(F)cc2F)c1N)C(F)(F)F)C(=O)c1c(F)cccc1F (racemic) [Example 34 (racemic), 5-amino-1-(2,4-difluorophenyl)-N-(2-{[[(2,6-difluorophenyl)carbonyl](ethyl)amino]methyl}-3,3,3-trifluoro-2-hydroxypropyl)-1H-pyrazole-4-carboxamide] | > 85% | < 1000 nM |
| CCN(CC(O)(CNC(=O)c1cnn(-c2ccc(F)cc2)c1N)C(F)(F)F)C(=O)c1c(F)cccc1C(F)(F)F (racemic) [Example 23 (racemic), 5-amino-N-{2-[(ethyl{[2-fluoro-6-(trifluoromethyl)phenyl]carbonyl}amino)methyl]-3,3,3-trifluoro-2-hydroxypropyl}-1-(4-fluorophenyl)-1H-pyrazole-4-carboxamide] | > 85% | < 1000 nM |
| CCN(CC(O)(CNC(=O)c1cnn(-c2ccc(Cl)cc2)c1N)C(F)(F)F)C(=O)c1c(F)cccc1F (racemic) [Example 39 (racemic), 5-amino-1-(4-chlorophenyl)-N-(2-{[[(2,6-difluorophenyl)carbonyl](ethyl)amino]methyl}-3,3,3-trifluoro-2-hydroxypropyl)-1H-pyrazole-4-carboxamide] | > 85% | < 1000 nM |
